The target of assay [1] is T1, PARP1 (Homo sapiens, UniProt P09874).
T1 construct: purchased BPS 80501
Nature of the assay: PARP1 enzyme assay (histone-coated plate, chemiluminescence). The format is biochemical. Particulars: PARP1 0.02 nM, DNA 0.8 nM, NAD+ 3.5 µM; read-out: PARP-1 IC50. Here is the method: 1.1.1. Buffer preparation: PBST: 1× PBS, 0.05% Tween-20; blocking buffer: 1× PBS, 0.05% Tween-20, 5% BSA; reaction buffer: 50 mM Tris-HCl (pH 7.5), 0.005% Tween-20, 0.01% BSA.
1.1.2. Coating: A 50 ng/mL Histone coating solution was prepared with 1× PBS and then transferred to a 384-well reaction plate at 25 µL/well. The plate was coated at 4 °C overnight.
1.1.3. Washing: After the coating was completed, the coating solution was discarded, and the plate was washed with the PBST solution. The method was as follows: PBST was transferred to the 384-well reaction plate at 50 µL/well, and the plate was left to stand for 5 min. The washing solution was then discarded, and the plate was refilled. The washing step was repeated 3 times. Finally, the reaction plate was patted dry and left for the next step of blocking.
1.1.4. Blocking: The blocking buffer was transferred to the 384-well reaction plate at 50 µL/well, and the plate was left to stand for 1 h.
Washing: After the blocking was completed, the blocking buffer was discarded, and the plate was washed 3 times with the PBST solution according to the method in step 2. Finally, the reaction plate was patted dry.
1.1.5. A 1000-fold solution of a compound was prepared and then transferred at 1 µL/well to a 96-well plate containing 199 µL of the reaction buffer. The mixture was well mixed, and then the well mixed compound solution was transferred to the 384-well reaction plate at 5 µL/well. 1.1.6. A 25/10-fold PARP1-DNA solution was prepared with the reaction buffer and then transferred to the 384-well reaction plate at 10 µL/well. For the negative control wells, 10 µL
of the DNA solution was transferred. The final concentrations of PARP1 and DNA were 0.02 nM and 0.8 nM, respectively.
1.1.9. Washing: After the reaction was completed, the reaction solution was discarded, and the plate was washed 3 times with the PBST solution according to the method in step 2. Finally, the reaction plate was patted dry.
1.1.10. A primary antibody (anti-Poly/Mono-ADP Ribose Rabbit mAb) was diluted 2000-fold with the blocking buffer and then added at 20 µL/well.
1.1.11. Washing: The primary antibody was discarded, and the plate was washed 3 times with the PBST solution according to the method in step 2. Finally, the reaction plate was patted dry.
1.1.12. A secondary antibody (anti-rabbit IgG, HRP-linked Antibody) was diluted 2000-fold with the blocking buffer and then added at 20 µL/well.
1.1.13. Washing: The secondary antibody was discarded, and the plate was washed 3 times with the PBST solution according to the method in step 2. Finally, the reaction plate was patted dry.
1.1.14. Color development: Femto-ECL Substrate A and Femto-ECL Substrate B were mixed at a ratio of 1:1, and the mixture was transferred to the 384-well reaction plate at 25 µL/well. 1.1.15. Reading: The chemiluminescence values (RLU) were measured using Envision.

In assay [2] the test system is BRCA wild-type DLD-1 cells. Nature of the assay: Anti-proliferative activity against cells (CCK8): DLD-1. The assay is classed as cell-based. Particulars: Homo sapiens, 72 h + 96 h culture. Here is the method:
BRCA wild-type DLD-1 cells were cultured in an RPMI-1640 medium containing 10% fetal bovine serum, 100 U/mL penicillin, and 100 µg/mL streptomycin, and incubated in an incubator with 5% saturated CO2 at 37 °C. When the cells grew to 80% confluence, they were collected, centrifuged at 300 g for 10 min, and then plated onto a 96-well plate at 1000 cells/well. After 24 h, different final concentrations (0 µM, 1 µM, and 10 µM) of PARPi were added, and the cells were cultured for another 72 h. The cells were subjected to medium exchange treatment (re-supplemented with PARPi at the same final concentrations) and then cultured for another 96 h. The 96-well plate was taken out.

In assay [3] the test system is BRCA-mutated MDA-MB-436 cells. In words: Anti-proliferative activity against cells (CCK8): MDA-MB-436. The assay is classed as cell-based. Particulars: Homo sapiens, 72 h + 96 h culture.

T1 sequence (P09874 whole entry): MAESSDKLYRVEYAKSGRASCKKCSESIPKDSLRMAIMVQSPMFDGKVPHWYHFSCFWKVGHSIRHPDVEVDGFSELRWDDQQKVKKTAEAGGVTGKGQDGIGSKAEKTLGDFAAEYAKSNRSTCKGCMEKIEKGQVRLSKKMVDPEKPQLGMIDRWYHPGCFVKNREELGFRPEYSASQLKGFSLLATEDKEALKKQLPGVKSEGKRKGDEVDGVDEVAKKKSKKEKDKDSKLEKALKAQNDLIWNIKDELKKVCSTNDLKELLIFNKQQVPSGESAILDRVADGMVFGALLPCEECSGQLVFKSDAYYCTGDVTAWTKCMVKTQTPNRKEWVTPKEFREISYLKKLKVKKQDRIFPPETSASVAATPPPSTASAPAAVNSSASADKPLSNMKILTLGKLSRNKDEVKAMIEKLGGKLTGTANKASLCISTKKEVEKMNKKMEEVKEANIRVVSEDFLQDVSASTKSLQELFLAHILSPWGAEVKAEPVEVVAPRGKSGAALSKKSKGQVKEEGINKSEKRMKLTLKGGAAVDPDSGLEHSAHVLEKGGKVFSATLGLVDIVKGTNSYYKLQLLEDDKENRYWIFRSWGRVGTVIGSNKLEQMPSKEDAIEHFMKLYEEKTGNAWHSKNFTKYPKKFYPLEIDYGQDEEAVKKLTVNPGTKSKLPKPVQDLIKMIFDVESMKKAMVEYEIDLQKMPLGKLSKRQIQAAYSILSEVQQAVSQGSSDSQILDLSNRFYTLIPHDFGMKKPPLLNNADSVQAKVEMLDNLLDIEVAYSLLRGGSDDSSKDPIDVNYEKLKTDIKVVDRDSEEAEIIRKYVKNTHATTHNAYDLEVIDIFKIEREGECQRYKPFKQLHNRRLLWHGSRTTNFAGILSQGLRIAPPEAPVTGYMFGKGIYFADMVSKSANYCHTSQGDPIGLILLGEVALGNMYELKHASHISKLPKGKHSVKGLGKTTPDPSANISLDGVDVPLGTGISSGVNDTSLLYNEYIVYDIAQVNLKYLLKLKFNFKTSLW

A word on the IC50: it is the midpoint of a concentration-inhibition curve. In the case of `CCc1cc2c([nH]c1=O)CC(CN1CC=C(c3ccc(C(=O)NC)nc3)CC1)OC2` (stereo not drawn) [Compound 5, 1'-((3-Ethyl-2-oxo-1,5,7,8-tetrahydro-2H-pyrano[4,3-b]pyridin-7-yl)methyl)-N-methyl-1',2',3',6'-tetrahydro-[3,4'-bipyridine]-6-carboxamide], the half-inhibitory concentration (IC50) in assay [1] is not above 0.05 µM; in assay [2], more than 1 µM; in assay [3], 0.0075 µM.

Take `CCc1cc2c([nH]c1=O)CC(CN1CCN(c3ccc(C(=O)NC)nc3)CC1)OC2` (stereo not drawn) [Compound 1, 5-(4-((3-Ethyl-2-oxo-1,5,7,8-tetrahydro-2H-pyrano[4,3-b]pyridin-7-yl)methyl)piperazin-1-yl) -N-methylpicolinamide]: the half-inhibitory concentration (IC50) in assay [1] was not above 0.05 µM; in assay [2] it was more than 1 µM; in assay [3], 0.3 µM.

In the case of `CNC(=O)c1ccc(N2CCN(CC3Cc4[nH]c(=O)c(C)c(C)c4CO3)CC2)c(Cl)n1` (stereo not drawn) [Example 100, 6-Chloro-5-(4-((3,4-dimethyl-2-oxo-1,5,7,8-tetrahydro-2H-pyrano[4,3-b]pyridin-7-yl)methyl)piperazin-1-yl)-N-methylpicolinamide], the IC50 is not above 0.05 µM in assay [1], more than 1 µM in assay [2] and 0.0155 µM in assay [3].

For the compound `CNC(=O)c1ccc(C2CCN(CC3Cc4[nH]c(=O)c(C5CC5)cc4CO3)CC2)c(F)n1` (stereo not drawn) [Example 61, 5-(1-((3-Cyclopropyl-2-oxo-1,5,7,8-tetrahydro-2H-pyrano[4,3-b]pyridin-7-yl)methyl)piperidin-4-yl)-6-fluoro-N-methylpicolinamide], the IC50 in assay [1] is 0.05 to 0.5 µM; in assay [2] it was more than 1 µM; in assay [3] it was 0.36 µM.

As for `CNC(=O)c1ccc(N2CCN(CC3Cc4[nH]c(=O)c(C)cc4CO3)CC2)c(C#N)n1` (stereo not drawn) [Example 76, 6-Cyano-N-methyl-5-(4-((3-methyl-2-oxo-1,5,7,8-tetrahydro-2H-pyrano[4,3-b]pyridin-7-yl)methyl)piperazin-1-yl)picolinamide], the results for the IC50 in assay [1], in assay [2] and in assay [3] were not above 0.05 µM, more than 1 µM and 0.0096 µM, respectively.

With `CCc1cc2c([nH]c1=O)CC(CN1CCN(c3ccc(C(=O)NC4CC4)nc3F)CC1)OC2` (stereo not drawn) [Compound 3, N-Cyclopropyl-5-(4-((3-ethyl-2-oxo-1,5,7,8-tetrahydro-2H-pyrano[4,3-b]pyridin-7-yl)methyl)piperazin-1-yl)-6-fluoropicolinamide], the IC50 in assay [1] was not above 0.05 µM; in assay [2], more than 1 µM; in assay [3] it was 0.0015 µM.

On to `CNC(=O)c1ccc(C2=CCN(CC3Cc4[nH]c(=O)c(C)cc4CO3)CC2)c(Cl)n1` (stereo not drawn) [Example 70, 2-Chloro-N-methyl-1'-((3-methyl-2-oxo-1,5,7,8-tetrahydro-2H-pyrano[4,3-b]pyridin-7-yl)methyl)-1',2',3',6'-tetrahydro-[3,4'-bipyridine]-6-carboxamide], for which the concentration for half-maximal inhibition (IC50) in assay [1] was 0.05 to 0.5 µM; in assay [2], more than 1 µM; in assay [3], 0.3 µM.

Regarding `CNC(=O)c1ccc(N2CCN(CC3Cc4[nH]c(=O)c(C5CC5)cc4CO3)CC2)c(Cl)n1` (stereo not drawn) [Example 73, 6-Chloro-5-(4-((3-cyclopropyl-2-oxo-1,5,7,8-tetrahydro-2H-pyrano[4,3-b]pyridin-7-yl)methyl)piperazin-1-yl)-N-methylpicolinamide], the figures for the IC50 in assay [1], in assay [2] and in assay [3] were 0.05 to 0.5 µM, more than 1 µM and 0.015 µM, respectively.

In the case of `CCc1cc2c([nH]c1=O)CC(CN1CCN(c3ccc(C(=O)Nc4cnn(C)c4)nc3F)CC1)OC2` (stereo not drawn) [Example 78, 5-(4-((3-Ethyl-2-oxo-1,5,7,8-tetrahydro-2H-pyrano[4,3-b]pyridin-7-yl)methyl)piperazin-1-yl) -6-fluoro-N-(1-methyl-1H-pyrazol-4-yl)picolinamide], the values for the 50% inhibitory concentration (IC50) in assay [1], in assay [2] and in assay [3] were not above 0.05 µM, more than 1 µM and 0.0028 µM, respectively.

The values are drawn from patent EP4768487A1, “FUSED LACTAM RING COMPOUND AND USE THEREOF” (Chengdu Zenitar Biomedical Technology Co., Ltd., priority 2023, dated 2025).
